In brackets after ≈: the same amount, converted by molar mass.
tested on: Candida albicans; assay: Antimicrobial activity against Candida albicans after 48 hr by serial dilution method; type: functional; details: not given

Structure (SMILES) | -logMIC
CCOc1cc(/C=N/N(C(=O)c2ccccc2)C(=O)c2ccncc2)ccc1O | 2.79
CSc1ccc(/C=N/N(C(=O)c2ccccc2)C(=O)c2ccncc2)cc1 | 2.78
O=C(N/N=C/c1c(O)ccc2ccccc12)c1ccncc1 | 2.37
C/C=C/C=N/NC(=O)c1ccncc1 | 2.48
OC(Cn1cncn1)(Cn1cncn1)c1ccc(F)cc1F [FLUCONAZOLE] | 2.64
NNC(=O)c1ccncc1 [ISONIAZID] | 2.34
O=C(N/N=C/c1ccccc1O)c1ccncc1 [SALINAZID] | 2.29

tested on: Coxsackievirus B4; assay: Antiviral activity against Human coxsackievirus B4 infected Vero cells assessed as inhibition of virus-induced cytopathicity; type: functional, organism-based; details: Enterovirus B

Structure (SMILES) | EC50 [µg/mL]
CCOc1cc(/C=N/N(C(=O)c2ccccc2)C(=O)c2ccncc2)ccc1O | > 100
CSc1ccc(/C=N/N(C(=O)c2ccccc2)C(=O)c2ccncc2)cc1 | 9 (≈ 24 µM)
O=C(N/N=C/c1c(O)ccc2ccccc12)c1ccncc1 | > 0.8
C/C=C/C=N/NC(=O)c1ccncc1 | > 20

tested on: Vesicular stomatitis virus; assay: Antiviral activity against Vesicular stomatitis virus infected human HeLa cells assessed as inhibition of virus-induced cytopathicity; type: functional, organism-based; details: not given

Structure (SMILES) | EC50 [µg/mL]
CCOc1cc(/C=N/N(C(=O)c2ccccc2)C(=O)c2ccncc2)ccc1O | > 100
CSc1ccc(/C=N/N(C(=O)c2ccccc2)C(=O)c2ccncc2)cc1 | > 100
O=C(N/N=C/c1c(O)ccc2ccccc12)c1ccncc1 | > 0.04
C/C=C/C=N/NC(=O)c1ccncc1 | > 20

tested on: Human immunodeficiency virus 1; assay: Antiviral activity against Human immunodeficiency virus 1 IIIB infected human MT4 cells assessed as inhibition of virus-induced cytopathicity; type: functional, organism-based; details: not given

Structure (SMILES) | EC50 [µg/mL]
CCOc1cc(/C=N/N(C(=O)c2ccccc2)C(=O)c2ccncc2)ccc1O | > 92
CSc1ccc(/C=N/N(C(=O)c2ccccc2)C(=O)c2ccncc2)cc1 | > 69
O=C(N/N=C/c1c(O)ccc2ccccc12)c1ccncc1 | > 0.1
C/C=C/C=N/NC(=O)c1ccncc1 | > 11
O=C(N/N=C/c1ccccc1O)c1ccncc1 [SALINAZID] | > 2.52

tested on: not listed separately; assay: Cytotoxicity against Homo sapiens (human) HeLa cells; type: cell-based; details: not given

Structure (SMILES) | MCC [µg/mL]
CCOc1cc(/C=N/N(C(=O)c2ccccc2)C(=O)c2ccncc2)ccc1O | > 100
CSc1ccc(/C=N/N(C(=O)c2ccccc2)C(=O)c2ccncc2)cc1 | > 100
O=C(N/N=C/c1c(O)ccc2ccccc12)c1ccncc1 | 0.2
C/C=C/C=N/NC(=O)c1ccncc1 | 100

tested on: Sindbis virus; assay: Antiviral activity against Sindbis virus infected Vero cells assessed as inhibition of virus-induced cytopathicity; type: functional, organism-based; details: not given

Structure (SMILES) | EC50 [µg/mL]
CCOc1cc(/C=N/N(C(=O)c2ccccc2)C(=O)c2ccncc2)ccc1O | > 100
CSc1ccc(/C=N/N(C(=O)c2ccccc2)C(=O)c2ccncc2)cc1 | > 100
O=C(N/N=C/c1c(O)ccc2ccccc12)c1ccncc1 | > 0.8
C/C=C/C=N/NC(=O)c1ccncc1 | > 20

tested on: not listed separately; assay: Cytotoxicity against Homo sapiens (human) HEL cells; type: cell-based; details: not given

Structure (SMILES) | MCC [µg/mL]
CCOc1cc(/C=N/N(C(=O)c2ccccc2)C(=O)c2ccncc2)ccc1O | > 100
CSc1ccc(/C=N/N(C(=O)c2ccccc2)C(=O)c2ccncc2)cc1 | > 100
O=C(N/N=C/c1c(O)ccc2ccccc12)c1ccncc1 | ≥ 20
C/C=C/C=N/NC(=O)c1ccncc1 | 100

tested on: Escherichia coli; assay: Antimicrobial activity against Escherichia coli after 24 hr by serial dilution method; type: functional; details: not given

Structure (SMILES) | -logMIC
CCOc1cc(/C=N/N(C(=O)c2ccccc2)C(=O)c2ccncc2)ccc1O | 2.49
CSc1ccc(/C=N/N(C(=O)c2ccccc2)C(=O)c2ccncc2)cc1 | 2.48
O=C(N/N=C/c1c(O)ccc2ccccc12)c1ccncc1 | 2.07
C/C=C/C=N/NC(=O)c1ccncc1 | 1.88
NNC(=O)c1ccncc1 [ISONIAZID] | 1.74
CCn1cc(C(=O)O)c(=O)c2cc(F)c(N3CCNCC3)cc21 [NORFLOXACIN] | 2.61
O=C(N/N=C/c1ccccc1O)c1ccncc1 [SALINAZID] | 2.29

tested on: Coxsackievirus B4; assay: Antiviral activity against Human coxsackievirus B4 infected human HeLa cells assessed as inhibition of virus-induced cytopathicity; type: functional, organism-based; details: Enterovirus B

Structure (SMILES) | EC50 [µg/mL]
CCOc1cc(/C=N/N(C(=O)c2ccccc2)C(=O)c2ccncc2)ccc1O | > 100
CSc1ccc(/C=N/N(C(=O)c2ccccc2)C(=O)c2ccncc2)cc1 | > 100
O=C(N/N=C/c1c(O)ccc2ccccc12)c1ccncc1 | > 0.04
C/C=C/C=N/NC(=O)c1ccncc1 | > 20

tested on: not listed separately; assay: Cytotoxicity against Homo sapiens (human) MT4 cells; type: cell-based; details: not given

Structure (SMILES) | CC50 [µg/mL]
CCOc1cc(/C=N/N(C(=O)c2ccccc2)C(=O)c2ccncc2)ccc1O | ≥ 92
CSc1ccc(/C=N/N(C(=O)c2ccccc2)C(=O)c2ccncc2)cc1 | 69 (≈ 184 µM)
O=C(N/N=C/c1c(O)ccc2ccccc12)c1ccncc1 | 0.1 (≈ 0.343 µM)
C/C=C/C=N/NC(=O)c1ccncc1 | 11 (≈ 58.1 µM)
Cc1ccnc2c1NC(=O)c1cccnc1N2C1CC1 [NEVIRAPINE] | > 4
O=C(N/N=C/c1ccccc1O)c1ccncc1 [SALINAZID] | 2.52 (≈ 10.4 µM)
Cc1cn([C@H]2C[C@H](N=[N+]=[N-])[C@@H](CO)O2)c(=O)[nH]c1=O [ZIDOVUDINE] | > 25

tested on: Vaccinia virus; assay: Antiviral activity against Vaccinia virus infected human HEL cells assessed as inhibition of virus-induced cytopathicity; type: functional, organism-based; details: Orthopoxvirus vaccinia

Structure (SMILES) | EC50 [µg/mL]
CCOc1cc(/C=N/N(C(=O)c2ccccc2)C(=O)c2ccncc2)ccc1O | > 100
CSc1ccc(/C=N/N(C(=O)c2ccccc2)C(=O)c2ccncc2)cc1 | > 100
O=C(N/N=C/c1c(O)ccc2ccccc12)c1ccncc1 | 0.14 (≈ 0.481 µM)
C/C=C/C=N/NC(=O)c1ccncc1 | > 20

tested on: Human alphaherpesvirus 1; assay: Antiviral activity against Human herpesvirus 1 strain KOS infected in human HEL cells assessed as inhibition of virus-induced cytopathicity; type: functional, organism-based; details: Human alphaherpesvirus 1, KOS

Structure (SMILES) | EC50 [µg/mL]
CCOc1cc(/C=N/N(C(=O)c2ccccc2)C(=O)c2ccncc2)ccc1O | > 100
CSc1ccc(/C=N/N(C(=O)c2ccccc2)C(=O)c2ccncc2)cc1 | > 100
O=C(N/N=C/c1c(O)ccc2ccccc12)c1ccncc1 | 0.06 (≈ 0.206 µM)
C/C=C/C=N/NC(=O)c1ccncc1 | > 20

tested on: Human alphaherpesvirus 1; assay: Antiviral activity against TK(-) aciclovir-resistant Human herpesvirus 1 strain KOS infected in human HEL cells assessed as inhibition of virus-induced cytopathicity; type: functional, organism-based; details: Human alphaherpesvirus 1, KOS

Structure (SMILES) | EC50 [µg/mL]
CCOc1cc(/C=N/N(C(=O)c2ccccc2)C(=O)c2ccncc2)ccc1O | > 100
CSc1ccc(/C=N/N(C(=O)c2ccccc2)C(=O)c2ccncc2)cc1 | > 100
O=C(N/N=C/c1c(O)ccc2ccccc12)c1ccncc1 | 0.4 (≈ 1.37 µM)
C/C=C/C=N/NC(=O)c1ccncc1 | > 20

tested on: not listed separately; assay: Cytotoxicity against Chlorocebus aethiops (African green monkey) Vero cells assessed as alteration in cell morphology; type: cell-based; details: chlorocebus sabaeus

Structure (SMILES) | MCC [µg/mL]
CCOc1cc(/C=N/N(C(=O)c2ccccc2)C(=O)c2ccncc2)ccc1O | > 100
CSc1ccc(/C=N/N(C(=O)c2ccccc2)C(=O)c2ccncc2)cc1 | ≥ 100
O=C(N/N=C/c1c(O)ccc2ccccc12)c1ccncc1 | ≥ 0.8
C/C=C/C=N/NC(=O)c1ccncc1 | 100

tested on: Respiratory syncytial virus; assay: Antiviral activity against Respiratory syncytial virus infected human HeLa cells assessed as inhibition of virus-induced cytopathicity; type: functional, organism-based; details: not given

Structure (SMILES) | EC50 [µg/mL]
CCOc1cc(/C=N/N(C(=O)c2ccccc2)C(=O)c2ccncc2)ccc1O | > 100
CSc1ccc(/C=N/N(C(=O)c2ccccc2)C(=O)c2ccncc2)cc1 | > 100
O=C(N/N=C/c1c(O)ccc2ccccc12)c1ccncc1 | > 0.04
C/C=C/C=N/NC(=O)c1ccncc1 | > 20

tested on: Human alphaherpesvirus 2; assay: Antiviral activity against Human herpesvirus 2 strain G infected human HEL cells assessed as inhibition of virus-induced cytopathicity; type: functional, organism-based; details: Human alphaherpesvirus 2, strain G

Structure (SMILES) | EC50 [µg/mL]
CCOc1cc(/C=N/N(C(=O)c2ccccc2)C(=O)c2ccncc2)ccc1O | > 100
CSc1ccc(/C=N/N(C(=O)c2ccccc2)C(=O)c2ccncc2)cc1 | > 100
O=C(N/N=C/c1c(O)ccc2ccccc12)c1ccncc1 | 0.4 (≈ 1.37 µM)
C/C=C/C=N/NC(=O)c1ccncc1 | > 20

tested on: Human respirovirus 3; assay: Antiviral activity against Human parainfluenza virus 3 infected Vero cells assessed as inhibition of virus-induced cytopathicity; type: functional, organism-based; details: Human respirovirus 3, Vero

Structure (SMILES) | EC50 [µg/mL]
CCOc1cc(/C=N/N(C(=O)c2ccccc2)C(=O)c2ccncc2)ccc1O | > 100
CSc1ccc(/C=N/N(C(=O)c2ccccc2)C(=O)c2ccncc2)cc1 | > 100
O=C(N/N=C/c1c(O)ccc2ccccc12)c1ccncc1 | > 0.8
C/C=C/C=N/NC(=O)c1ccncc1 | > 20

tested on: Staphylococcus aureus; assay: Antimicrobial activity against Staphylococcus aureus after 24 hr by serial dilution method; type: functional; details: not given

Structure (SMILES) | -logMIC
CCOc1cc(/C=N/N(C(=O)c2ccccc2)C(=O)c2ccncc2)ccc1O | 2.19
CSc1ccc(/C=N/N(C(=O)c2ccccc2)C(=O)c2ccncc2)cc1 | 2.18
O=C(N/N=C/c1c(O)ccc2ccccc12)c1ccncc1 | 2.07
C/C=C/C=N/NC(=O)c1ccncc1 | 1.88
NNC(=O)c1ccncc1 [ISONIAZID] | 2.04
CCn1cc(C(=O)O)c(=O)c2cc(F)c(N3CCNCC3)cc21 [NORFLOXACIN] | 2.61
O=C(N/N=C/c1ccccc1O)c1ccncc1 [SALINAZID] | 1.98

tested on: Punta Toro virus; assay: Antiviral activity against Punta Toro virus infected Vero cells assessed as inhibition of virus-induced cytopathicity; type: functional, organism-based; details: not given

Structure (SMILES) | EC50 [µg/mL]
CCOc1cc(/C=N/N(C(=O)c2ccccc2)C(=O)c2ccncc2)ccc1O | > 100
CSc1ccc(/C=N/N(C(=O)c2ccccc2)C(=O)c2ccncc2)cc1 | > 100
O=C(N/N=C/c1c(O)ccc2ccccc12)c1ccncc1 | > 0.8
C/C=C/C=N/NC(=O)c1ccncc1 | > 20

tested on: Human immunodeficiency virus 2; assay: Antiviral activity against Human immunodeficiency virus type 2 (ISOLATE ROD) infected human MT4 cells assessed as inhibition of virus-induced cytopathicity; type: functional, organism-based; details: Human immunodeficiency virus 2, ISOLATE ROD

Structure (SMILES) | EC50 [µg/mL]
CCOc1cc(/C=N/N(C(=O)c2ccccc2)C(=O)c2ccncc2)ccc1O | > 92
CSc1ccc(/C=N/N(C(=O)c2ccccc2)C(=O)c2ccncc2)cc1 | > 69
O=C(N/N=C/c1c(O)ccc2ccccc12)c1ccncc1 | > 0.1
C/C=C/C=N/NC(=O)c1ccncc1 | > 11
Cc1ccnc2c1NC(=O)c1cccnc1N2C1CC1 [NEVIRAPINE] | > 4
O=C(N/N=C/c1ccccc1O)c1ccncc1 [SALINAZID] | > 2.52

tested on: Mammalian orthoreovirus 1; assay: Antiviral activity against Mammalian orthoreovirus 1 infected Vero cells assessed as inhibition of virus-induced cytopathicity; type: functional, organism-based; details: Mammalian orthoreovirus 1, Vero

Structure (SMILES) | EC50 [µg/mL]
CCOc1cc(/C=N/N(C(=O)c2ccccc2)C(=O)c2ccncc2)ccc1O | > 100
CSc1ccc(/C=N/N(C(=O)c2ccccc2)C(=O)c2ccncc2)cc1 | > 100
O=C(N/N=C/c1c(O)ccc2ccccc12)c1ccncc1 | > 0.8
C/C=C/C=N/NC(=O)c1ccncc1 | > 20

tested on: Bacillus subtilis; assay: Antimicrobial activity against Bacillus subtilis after 24 hr by serial dilution method; type: functional; details: not given

Structure (SMILES) | -logMIC
CCOc1cc(/C=N/N(C(=O)c2ccccc2)C(=O)c2ccncc2)ccc1O | 2.19
CSc1ccc(/C=N/N(C(=O)c2ccccc2)C(=O)c2ccncc2)cc1 | 2.18
O=C(N/N=C/c1c(O)ccc2ccccc12)c1ccncc1 | 2.07
C/C=C/C=N/NC(=O)c1ccncc1 | 1.88
NNC(=O)c1ccncc1 [ISONIAZID] | 1.74
CCn1cc(C(=O)O)c(=O)c2cc(F)c(N3CCNCC3)cc21 [NORFLOXACIN] | 2.61
O=C(N/N=C/c1ccccc1O)c1ccncc1 [SALINAZID] | 1.98

tested on: Aspergillus niger; assay: Antimicrobial activity against Aspergillus niger after 7 days by serial dilution method; type: functional; details: not given

Structure (SMILES) | -logMIC
CCOc1cc(/C=N/N(C(=O)c2ccccc2)C(=O)c2ccncc2)ccc1O | 2.19
CSc1ccc(/C=N/N(C(=O)c2ccccc2)C(=O)c2ccncc2)cc1 | 2.48
O=C(N/N=C/c1c(O)ccc2ccccc12)c1ccncc1 | 2.37
C/C=C/C=N/NC(=O)c1ccncc1 | 2.18
OC(Cn1cncn1)(Cn1cncn1)c1ccc(F)cc1F [FLUCONAZOLE] | 2.64
NNC(=O)c1ccncc1 [ISONIAZID] | 2.04
O=C(N/N=C/c1ccccc1O)c1ccncc1 [SALINAZID] | 2.29

Source: ChEMBL document CHEMBL3046007, “Isonicotinic acid hydrazide derivatives: synthesis, antimicrobial activity, and QSAR studies” (Med Chem Res, 2012)
